Each structure is given as a SMILES string. Where only a bound is given, the exact number is not on record here.

Data set [1] has as its target Platelet-derived growth factor receptor beta (Homo sapiens, UniProt P09619). Description: Inhibition of recombinant PDGFRbeta (unknown origin) by off-chip mobility shift assay.
In data set [2] the target is Voltage-gated inwardly rectifying potassium channel KCNH2 (Homo sapiens, UniProt Q12809).
Data set [3] can be described thus: AUC in Sprague-Dawley rat at 10 mg/kg, iv by UFLC-MS/MS analysis. It counts as ADME, organism-based. The conditions noted are these: in vivo.
Data set [4] relates to Mus musculus. In words: Toxicity in C57 mouse at 10 to 100 mg/kg, po administered qd measured up to 28 days. It counts as organism-based. The note with it: in vivo, 672 h.
Data set [5] is described as follows: Oral bioavailability in Sprague-Dawley rat at 10 mg/kg administered via gavage by UFLC-MS/MS analysis. It counts as ADME, organism-based. The note with it: in vivo.
Data set [6] can be described thus: AUC in Beagle dog […] at 20 mg/kg, iv by UFLC-MS/MS analysis. It counts as ADME, organism-based, Canis lupus familiaris. The note with it: in vivo.
Data set [7] in a line: AUC in CD1 mouse at 50 mg/kg, iv by UFLC-MS/MS analysis. It counts as ADME, organism-based. The conditions noted are these: in vivo.
Data set [8] can be described thus: Half life in Sprague-Dawley rat at 10 mg/kg, iv by UFLC-MS/MS analysis. It counts as ADME, organism-based. The note with it: in vivo.
Data set [9] in a line: Oral bioavailability in CD1 mouse at 50 mg/kg administered via gavage by UFLC-MS/MS analysis. The conditions noted are these: in vivo. It counts as ADME, organism-based.
Data set [10] relates to Mus musculus. Description: Antifibrotic activity in BLM-induced chronic pulmonary fibrosis C57 mouse model assessed as increase in survival rate administered qd measured up to 28 days. It counts as functional, organism-based.
The nature of data set [11]: Half life in Beagle dog […] at 20 mg/kg, iv by UFLC-MS/MS analysis. It counts as ADME, organism-based, Canis lupus familiaris. The conditions noted are these: in vivo.
Data set [12] can be described thus: Oral bioavailability in Beagle dog […] at 20 mg/kg administered via gavage by UFLC-MS/MS analysis. It counts as ADME, organism-based, Canis lupus familiaris. The note with it: in vivo.
Data set [13] is described as follows: Half life in CD1 mouse at 50 mg/kg, iv by UFLC-MS/MS analysis. The note with it: in vivo. It counts as ADME, organism-based.
Data set [14] concerns the target Mast/stem cell growth factor receptor Kit (Homo sapiens, UniProt P10721). In words: Inhibition of recombinant c-KIT (unknown origin) by off-chip mobility shift assay.
Data set [15] has as its system Mus musculus. Description: Toxicity in C57 mouse assessed as lethality at 5 mg/kg, iv after 28 days. It counts as organism-based. The conditions noted are these: in vivo, 672 h.

Sequence of Voltage-gated inwardly rectifying potassium channel KCNH2 (Q12809 whole entry): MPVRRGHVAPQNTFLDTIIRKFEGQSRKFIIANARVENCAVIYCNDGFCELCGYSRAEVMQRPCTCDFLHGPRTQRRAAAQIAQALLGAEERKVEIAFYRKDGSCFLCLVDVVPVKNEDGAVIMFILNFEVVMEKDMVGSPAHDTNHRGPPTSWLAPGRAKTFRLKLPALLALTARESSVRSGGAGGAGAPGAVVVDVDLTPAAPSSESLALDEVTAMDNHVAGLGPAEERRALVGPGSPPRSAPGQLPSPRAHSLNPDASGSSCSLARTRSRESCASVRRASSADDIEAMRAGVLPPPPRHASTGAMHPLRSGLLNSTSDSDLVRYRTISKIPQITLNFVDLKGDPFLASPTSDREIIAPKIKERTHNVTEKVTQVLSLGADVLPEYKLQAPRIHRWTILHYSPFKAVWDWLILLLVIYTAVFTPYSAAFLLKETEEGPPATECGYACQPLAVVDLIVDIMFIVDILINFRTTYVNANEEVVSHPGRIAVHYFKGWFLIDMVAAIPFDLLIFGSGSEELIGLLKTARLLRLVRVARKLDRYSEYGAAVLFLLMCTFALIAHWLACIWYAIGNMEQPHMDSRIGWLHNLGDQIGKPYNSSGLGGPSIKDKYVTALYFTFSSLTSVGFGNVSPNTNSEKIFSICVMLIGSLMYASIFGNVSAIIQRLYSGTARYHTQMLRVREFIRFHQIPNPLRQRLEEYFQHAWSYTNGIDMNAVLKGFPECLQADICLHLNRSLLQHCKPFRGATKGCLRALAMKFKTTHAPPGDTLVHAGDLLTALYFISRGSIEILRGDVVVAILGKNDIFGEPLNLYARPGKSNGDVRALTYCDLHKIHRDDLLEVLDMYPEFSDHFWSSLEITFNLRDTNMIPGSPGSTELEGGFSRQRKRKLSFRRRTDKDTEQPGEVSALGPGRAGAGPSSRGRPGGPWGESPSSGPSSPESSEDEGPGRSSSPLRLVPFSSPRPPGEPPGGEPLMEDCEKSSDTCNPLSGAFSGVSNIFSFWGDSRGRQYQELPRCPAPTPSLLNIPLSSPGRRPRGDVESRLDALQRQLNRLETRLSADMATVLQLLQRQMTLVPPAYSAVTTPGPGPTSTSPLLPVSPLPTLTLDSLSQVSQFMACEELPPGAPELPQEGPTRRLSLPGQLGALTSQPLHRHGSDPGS
Sequence of Platelet-derived growth factor receptor beta (P09619 whole entry): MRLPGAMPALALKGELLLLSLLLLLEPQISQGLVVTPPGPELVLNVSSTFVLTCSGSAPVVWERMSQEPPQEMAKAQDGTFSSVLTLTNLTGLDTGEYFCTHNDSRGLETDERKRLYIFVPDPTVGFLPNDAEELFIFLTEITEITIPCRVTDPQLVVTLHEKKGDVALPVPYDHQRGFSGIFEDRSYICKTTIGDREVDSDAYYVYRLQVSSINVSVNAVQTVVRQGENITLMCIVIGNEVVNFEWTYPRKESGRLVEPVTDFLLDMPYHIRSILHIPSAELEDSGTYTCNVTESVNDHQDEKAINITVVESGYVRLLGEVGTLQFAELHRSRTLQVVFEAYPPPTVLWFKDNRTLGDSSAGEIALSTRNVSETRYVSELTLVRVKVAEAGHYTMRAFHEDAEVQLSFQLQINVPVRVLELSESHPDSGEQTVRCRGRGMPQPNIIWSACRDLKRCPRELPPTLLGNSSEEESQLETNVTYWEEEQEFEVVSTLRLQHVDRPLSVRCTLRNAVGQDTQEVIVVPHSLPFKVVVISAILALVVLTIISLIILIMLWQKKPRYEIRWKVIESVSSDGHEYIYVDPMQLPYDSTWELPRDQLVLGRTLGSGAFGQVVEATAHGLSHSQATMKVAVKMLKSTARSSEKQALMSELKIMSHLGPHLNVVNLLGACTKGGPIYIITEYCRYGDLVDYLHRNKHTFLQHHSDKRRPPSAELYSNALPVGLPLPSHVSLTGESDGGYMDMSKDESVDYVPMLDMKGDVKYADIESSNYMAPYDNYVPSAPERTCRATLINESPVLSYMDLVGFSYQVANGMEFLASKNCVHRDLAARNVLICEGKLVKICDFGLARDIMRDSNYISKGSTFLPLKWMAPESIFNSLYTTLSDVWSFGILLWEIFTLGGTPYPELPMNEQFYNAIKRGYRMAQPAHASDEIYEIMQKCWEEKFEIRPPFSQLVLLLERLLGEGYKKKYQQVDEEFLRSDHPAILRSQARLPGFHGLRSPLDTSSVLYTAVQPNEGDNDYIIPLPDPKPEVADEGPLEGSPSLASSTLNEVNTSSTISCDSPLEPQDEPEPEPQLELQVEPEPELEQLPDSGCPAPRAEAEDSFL
Sequence of Mast/stem cell growth factor receptor Kit (P10721 whole entry): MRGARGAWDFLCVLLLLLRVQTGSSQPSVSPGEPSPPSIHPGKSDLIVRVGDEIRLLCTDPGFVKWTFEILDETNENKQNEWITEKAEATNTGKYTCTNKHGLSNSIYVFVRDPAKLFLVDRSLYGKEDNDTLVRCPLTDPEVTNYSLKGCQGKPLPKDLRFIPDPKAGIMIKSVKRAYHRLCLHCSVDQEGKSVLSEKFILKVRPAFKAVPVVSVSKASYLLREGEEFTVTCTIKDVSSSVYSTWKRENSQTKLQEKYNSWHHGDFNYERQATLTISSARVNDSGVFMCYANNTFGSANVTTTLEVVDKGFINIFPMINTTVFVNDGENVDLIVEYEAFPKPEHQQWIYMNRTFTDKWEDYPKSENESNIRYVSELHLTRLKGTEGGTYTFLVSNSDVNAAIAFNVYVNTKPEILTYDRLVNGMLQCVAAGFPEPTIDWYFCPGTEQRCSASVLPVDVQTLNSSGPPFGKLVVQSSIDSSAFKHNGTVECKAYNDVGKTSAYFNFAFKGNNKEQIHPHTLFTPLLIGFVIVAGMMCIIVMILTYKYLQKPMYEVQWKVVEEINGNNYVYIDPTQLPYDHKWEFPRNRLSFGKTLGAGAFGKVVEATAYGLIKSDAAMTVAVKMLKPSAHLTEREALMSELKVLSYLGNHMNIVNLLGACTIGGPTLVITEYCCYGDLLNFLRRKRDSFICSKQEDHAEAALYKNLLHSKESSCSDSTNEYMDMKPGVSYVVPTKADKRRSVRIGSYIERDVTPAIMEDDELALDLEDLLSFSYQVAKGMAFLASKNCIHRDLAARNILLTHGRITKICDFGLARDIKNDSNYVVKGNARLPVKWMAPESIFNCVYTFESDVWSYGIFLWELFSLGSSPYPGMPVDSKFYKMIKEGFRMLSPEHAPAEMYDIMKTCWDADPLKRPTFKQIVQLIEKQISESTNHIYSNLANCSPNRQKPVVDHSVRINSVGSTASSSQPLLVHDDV

As usually defined, the IC50 is the concentration that inhibits the measured activity by half. For the compound `CN1CCN(CC(=O)N(C)c2ccc(N/C(=C3\C(=O)Nc4cc(-n5nccn5)ccc43)c3ccccc3)cc2)CC1`, the IC50 in [1] came to 1.5 nM.
On the same count and under the same terms, under `COC(=O)c1ccc2c(c1)NC(=O)/C2=C(\Nc1ccc(N2C(=O)CC[C@@H]2CN(C)C)cc1)c1ccccc1` stands 14 nM; under `COC(=O)c1ccc2c(c1)NC(=O)/C2=C(\Nc1ccc(N2C(=O)CC[C@H]2CN2CCN(C)CC2)cc1)c1ccccc1`, 4.3 nM.
Consider `COC(=O)c1ccc2c(c1)NC(=O)/C2=C(\Nc1ccc(N2CCC(CN3CCN(C)CC3)C2=O)cc1)c1ccccc1` (stereo unspecified), for which the IC50 in data set [1] was 45 nM.
For `CN1CCN(CC(=O)N(C)c2ccc(N/C(=C3\C(=O)Nc4cc(-c5ncno5)ccc43)c3ccccc3)cc2)CC1`, the IC50 in [1] stood at 4.5 nM.
On the same count and under the same terms, to `COC(=O)c1ccc2c(c1)NC(=O)/C2=C(\Nc1ccc2c(c1)N(C(=O)CN(C)C)CC2)c1ccccc1` belongs 15 nM.
As for `COC(=O)c1ccc2c(c1)NC(=O)/C2=C(\Nc1ccc2c(c1)N(C(=O)Cn1cccn1)CC2)c1ccccc1`, the IC50 is > 30 nM in [2] and 24 nM in [1].
`CN1CCN(CC(=O)N(C)c2ccc(N/C(=C3\C(=O)Nc4cc(-c5cnco5)ccc43)c3ccccc3)cc2)CC1`: the IC50 in data set [1] turned out to be 34 nM.
For orientation: AUC means concentration integrated over time. A lower AUC goes with less exposure. Usually bioavailability stands for the share of a dose that reaches the circulation, judged against a reference dose that is usually intravenous. The low end stands for poor availability, the high end for good availability. By half-life is commonly meant the time in which the quantity being followed falls by half. High values mean slow loss, low ones fast loss. In the case of `COC(=O)c1ccc2c(c1)NC(=O)/C2=C(\Nc1ccc2c(c1)N(C(=O)CN1CCOCC1)CC2)c1ccccc1`, the AUC was 6410 ng·h/mL in data set [3], 2960 ng·h/mL in data set [6] and 17000 ng·h/mL in data set [7]. Besides, the Activity entry in data set [4] was “Non-Toxic”; in [10], “Dose-dependent effect”. Also, the bioavailability in data set [5] stood at 68%; in data set [9], 51%; in data set [12], 29%. Moreover, the figures for the half-life in data set [8], in data set [11] and in data set [13] were 4.8 h, 3.3 h and 4.3 h, respectively. The figures for the 50% inhibitory concentration (IC50) in data set [2], in data set [1] and in data set [14] were > 30 nM, 25 nM and 10 nM, respectively.
Take `COC(=O)c1ccc2c(c1)NC(=O)/C2=C(\Nc1ccc2c(c1)N(C(=O)CN1CCCC1=O)CC2)c1ccccc1`: the IC50 in data set [2] was > 30 nM; in data set [1] it was 19 nM.
For `COC(=O)c1ccc2c(c1)NC(=O)/C2=C(\Nc1ccc2c(c1)N(C(=O)CN1CC(C)OC(C)C1)CC2)c1ccccc1` (stereo unspecified) the same measures were > 30 nM and 91 nM.
As for `CN1CCN(CC(=O)N(C)c2ccc(N/C(=C3\C(=O)Nc4cc(OC(F)(F)F)ccc43)c3ccccc3)cc2)CC1`, the IC50 in [1] was 27 nM.
Regarding `CN1CCN(CC(=O)N(C)c2ccc(N/C(=C3\C(=O)Nc4cc(-c5ncon5)ccc43)c3ccccc3)cc2)CC1`, the Activity entry in [15] was “Toxic”. For the same compound, in [1], the IC50 is 5.3 nM.
On to `COC(=O)c1ccc2c(c1)NC(=O)/C2=C(\Nc1ccc(N2C(=O)CC[C@@H]2CN2CCN(C)CC2)cc1)c1ccccc1`, for which, in [1], the IC50 amounted to 3.2 nM.
Turning to `COC(=O)c1ccc2c(c1)NC(=O)/C2=C(\Nc1ccc2c(c1)N(C(=O)Cn1cncn1)CC2)c1ccccc1`, the values for the IC50 in data set [2] and in data set [1] were > 30 nM and 15 nM, respectively.
On to `CN1CCN(CC(=O)N(C)c2ccc(N/C(=C3\C(=O)Nc4cc(-c5nnn(C)n5)ccc43)c3ccccc3)cc2)CC1`, for which the IC50 in data set [1] worked out at 13 nM.
In the case of `CN1CCN(CC(=O)N(C)c2ccc(N/C(=C3\C(=O)Nc4cc(-c5ccco5)ccc43)c3ccccc3)cc2)CC1`, in data set [1], the IC50 was found to be 12 nM.
For `COC(=O)c1ccc2c(c1)NC(=O)/C2=C(\Nc1ccc(N(C)C(=O)CN2CCN(C)CC2)cc1)c1ccccc1` [NINTEDANIB], the IC50 in [2] amounted to 2.6 nM.

The values are drawn from ChEMBL document CHEMBL4130560, “Discovery of Indolinone-Based Multikinase Inhibitors as Potential Therapeutics for Idiopathic Pulmonary Fibrosis” (ACS Med Chem Lett, 2017).
